From ChEMBL document CHEMBL4507299, “Data for DCP probe PF-04554878” (2021)

Tests used:
[1] = molecular target: Tyrosine-protein kinase ABL1 (Homo sapiens, UniProt P00519); test: ABL Invitrogen kinase activity assay
[2] = molecular target: 5-hydroxytryptamine receptor 1A (Homo sapiens) (UniProt P08908); conditions: Compound concentration 10.0 uM
[3] = molecular target: Rho-associated protein kinase 1 (Homo sapiens) (UniProt Q13464); test: ROCK1 Invitrogen kinase activity assay; conditions: Compound concentration 1.0 uM
Sequence of Rho-associated protein kinase 1 (Homo sapiens) (Q13464 2-1354 limits assumed): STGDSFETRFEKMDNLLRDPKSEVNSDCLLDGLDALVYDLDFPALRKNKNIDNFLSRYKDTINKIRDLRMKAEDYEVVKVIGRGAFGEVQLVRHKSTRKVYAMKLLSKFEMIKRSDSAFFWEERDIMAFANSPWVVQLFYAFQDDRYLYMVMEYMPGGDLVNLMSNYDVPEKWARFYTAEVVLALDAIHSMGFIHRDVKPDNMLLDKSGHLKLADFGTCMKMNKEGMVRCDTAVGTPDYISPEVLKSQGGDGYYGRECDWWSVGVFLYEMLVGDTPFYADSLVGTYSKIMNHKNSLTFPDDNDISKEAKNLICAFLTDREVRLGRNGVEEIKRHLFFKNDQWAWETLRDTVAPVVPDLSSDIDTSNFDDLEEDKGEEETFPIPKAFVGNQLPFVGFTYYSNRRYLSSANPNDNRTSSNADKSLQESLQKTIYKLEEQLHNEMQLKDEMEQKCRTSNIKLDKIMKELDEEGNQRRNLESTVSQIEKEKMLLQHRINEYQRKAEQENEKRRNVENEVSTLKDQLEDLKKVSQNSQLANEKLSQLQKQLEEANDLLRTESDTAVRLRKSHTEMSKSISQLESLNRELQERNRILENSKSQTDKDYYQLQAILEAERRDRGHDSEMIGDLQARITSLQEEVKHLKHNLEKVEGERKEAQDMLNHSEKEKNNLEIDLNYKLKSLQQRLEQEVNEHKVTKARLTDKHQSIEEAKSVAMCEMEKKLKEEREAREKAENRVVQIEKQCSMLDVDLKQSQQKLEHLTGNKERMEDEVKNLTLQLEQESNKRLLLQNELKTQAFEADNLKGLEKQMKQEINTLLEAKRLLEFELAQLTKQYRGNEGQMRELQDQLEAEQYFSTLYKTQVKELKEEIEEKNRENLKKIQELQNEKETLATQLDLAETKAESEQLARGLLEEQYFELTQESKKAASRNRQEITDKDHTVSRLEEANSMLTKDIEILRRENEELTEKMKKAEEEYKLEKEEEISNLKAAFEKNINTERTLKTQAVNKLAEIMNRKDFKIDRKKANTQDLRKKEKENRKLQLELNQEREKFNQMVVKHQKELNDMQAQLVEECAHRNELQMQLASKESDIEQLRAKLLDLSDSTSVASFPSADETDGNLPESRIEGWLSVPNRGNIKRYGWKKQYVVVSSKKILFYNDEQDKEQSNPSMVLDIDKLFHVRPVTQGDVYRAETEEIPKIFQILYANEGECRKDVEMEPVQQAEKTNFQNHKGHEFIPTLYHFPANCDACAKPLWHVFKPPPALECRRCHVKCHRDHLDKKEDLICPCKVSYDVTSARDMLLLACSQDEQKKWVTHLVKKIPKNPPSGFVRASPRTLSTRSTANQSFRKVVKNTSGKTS

[4] = molecular target: T1, Inhibitor of nuclear factor kappa-B kinase subunit epsilon (Homo sapiens) (UniProt Q14164); test: IKKi Invitrogen kinase activity assay; conditions: Compound concentration 1.0 uM
T1 sequence (whole entry): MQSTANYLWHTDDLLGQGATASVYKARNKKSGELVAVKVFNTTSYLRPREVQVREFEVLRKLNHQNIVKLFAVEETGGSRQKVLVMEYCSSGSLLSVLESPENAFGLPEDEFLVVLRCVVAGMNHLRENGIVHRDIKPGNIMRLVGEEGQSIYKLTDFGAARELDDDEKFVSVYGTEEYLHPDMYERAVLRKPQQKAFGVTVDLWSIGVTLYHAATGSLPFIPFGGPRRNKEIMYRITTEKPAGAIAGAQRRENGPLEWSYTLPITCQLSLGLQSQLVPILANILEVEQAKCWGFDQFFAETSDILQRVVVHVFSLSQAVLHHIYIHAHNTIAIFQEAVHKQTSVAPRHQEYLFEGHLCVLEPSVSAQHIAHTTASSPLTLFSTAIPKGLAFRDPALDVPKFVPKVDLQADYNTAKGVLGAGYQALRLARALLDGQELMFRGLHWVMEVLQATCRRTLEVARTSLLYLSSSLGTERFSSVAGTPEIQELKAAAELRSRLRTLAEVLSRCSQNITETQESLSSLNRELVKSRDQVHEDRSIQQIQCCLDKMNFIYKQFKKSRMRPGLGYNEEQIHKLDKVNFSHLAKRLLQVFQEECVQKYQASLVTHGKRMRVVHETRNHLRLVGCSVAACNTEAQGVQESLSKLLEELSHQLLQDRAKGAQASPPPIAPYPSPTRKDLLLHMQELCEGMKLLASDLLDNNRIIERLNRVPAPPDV

[5] = molecular target: T2, Serine/threonine-protein kinase Chk1 (Homo sapiens) (UniProt O14757); test: CHK1 Invitrogen kinase activity assay; conditions: Compound concentration 1.0 uM
T2 sequence (whole entry): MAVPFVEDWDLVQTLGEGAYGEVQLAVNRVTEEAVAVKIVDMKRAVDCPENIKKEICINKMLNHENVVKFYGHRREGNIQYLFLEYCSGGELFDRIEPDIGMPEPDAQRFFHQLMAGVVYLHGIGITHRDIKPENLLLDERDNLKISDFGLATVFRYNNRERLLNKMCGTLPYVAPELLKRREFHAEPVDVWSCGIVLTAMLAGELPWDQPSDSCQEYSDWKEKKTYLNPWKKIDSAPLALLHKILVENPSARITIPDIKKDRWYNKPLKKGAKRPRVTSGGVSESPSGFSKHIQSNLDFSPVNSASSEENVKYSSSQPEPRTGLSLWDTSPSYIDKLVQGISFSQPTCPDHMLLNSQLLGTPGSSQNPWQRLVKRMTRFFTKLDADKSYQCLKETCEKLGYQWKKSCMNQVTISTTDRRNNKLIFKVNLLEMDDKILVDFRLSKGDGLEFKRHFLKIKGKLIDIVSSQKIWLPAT

[6] = molecular target: D(3) dopamine receptor (Homo sapiens) (UniProt P35462); conditions: Compound concentration 10.0 uM
Sequence of D(3) dopamine receptor (Homo sapiens) (P35462 whole entry): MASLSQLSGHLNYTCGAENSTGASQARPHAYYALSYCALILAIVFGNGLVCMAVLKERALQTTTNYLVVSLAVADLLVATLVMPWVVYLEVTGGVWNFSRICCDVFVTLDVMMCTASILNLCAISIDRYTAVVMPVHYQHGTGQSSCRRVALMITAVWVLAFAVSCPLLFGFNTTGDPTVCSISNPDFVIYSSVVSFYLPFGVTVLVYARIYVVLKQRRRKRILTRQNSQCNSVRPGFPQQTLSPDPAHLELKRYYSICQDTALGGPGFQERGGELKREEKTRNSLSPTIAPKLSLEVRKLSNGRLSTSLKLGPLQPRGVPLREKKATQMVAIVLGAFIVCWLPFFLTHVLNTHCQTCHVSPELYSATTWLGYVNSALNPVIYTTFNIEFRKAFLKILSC

[7] = molecular target: Calcium/calmodulin-dependent protein kinase type 1 (Homo sapiens) (UniProt Q14012); test: CAMK1 Invitrogen kinase activity assay; conditions: Compound concentration 1.0 uM
Sequence of Calcium/calmodulin-dependent protein kinase type 1 (Homo sapiens) (Q14012 whole entry, looked up): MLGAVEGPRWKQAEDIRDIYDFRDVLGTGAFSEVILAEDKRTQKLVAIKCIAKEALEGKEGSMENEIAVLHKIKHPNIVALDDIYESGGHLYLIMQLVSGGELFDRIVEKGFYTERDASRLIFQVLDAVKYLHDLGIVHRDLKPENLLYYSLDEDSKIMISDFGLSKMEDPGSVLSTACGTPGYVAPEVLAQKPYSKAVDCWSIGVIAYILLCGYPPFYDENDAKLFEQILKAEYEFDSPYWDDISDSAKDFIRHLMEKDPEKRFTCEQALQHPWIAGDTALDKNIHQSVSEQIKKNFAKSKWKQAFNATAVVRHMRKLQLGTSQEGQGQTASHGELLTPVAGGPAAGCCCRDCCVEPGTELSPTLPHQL

Adenosine receptor A2a = Adenosine receptor A2a (Homo sapiens, UniProt P29274); test: Cerep profiling assay (ADORA2A); design: compound concentration 10 uM
[8] = molecular target: Serine/threonine-protein kinase PAK 4 (Homo sapiens) (UniProt O96013); test: PAK4 Invitrogen kinase activity assay; conditions: Compound concentration 1.0 uM
Sequence of Serine/threonine-protein kinase PAK 4 (Homo sapiens) (O96013 whole entry, looked up): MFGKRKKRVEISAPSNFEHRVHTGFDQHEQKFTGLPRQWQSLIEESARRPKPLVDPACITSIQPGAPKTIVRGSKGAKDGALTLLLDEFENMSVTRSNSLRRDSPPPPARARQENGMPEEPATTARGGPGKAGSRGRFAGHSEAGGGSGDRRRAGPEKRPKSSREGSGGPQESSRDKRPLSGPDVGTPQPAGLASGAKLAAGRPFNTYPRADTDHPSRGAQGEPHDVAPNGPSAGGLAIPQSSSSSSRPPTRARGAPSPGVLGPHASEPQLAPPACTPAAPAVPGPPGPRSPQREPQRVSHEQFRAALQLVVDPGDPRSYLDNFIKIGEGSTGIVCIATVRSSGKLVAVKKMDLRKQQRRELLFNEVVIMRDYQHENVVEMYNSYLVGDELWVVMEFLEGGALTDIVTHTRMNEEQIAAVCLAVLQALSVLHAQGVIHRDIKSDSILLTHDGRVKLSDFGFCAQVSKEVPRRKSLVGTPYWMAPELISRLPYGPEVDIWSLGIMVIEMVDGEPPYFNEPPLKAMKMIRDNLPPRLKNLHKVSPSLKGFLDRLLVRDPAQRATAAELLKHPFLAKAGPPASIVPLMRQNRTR

[9] = molecular target: Protein kinase C beta type (Homo sapiens) (UniProt P05771); test: PKCbeta II Invitrogen kinase activity assay; conditions: Compound concentration 1.0 uM
Sequence of Protein kinase C beta type (Homo sapiens) (P05771 2-671 limits assumed): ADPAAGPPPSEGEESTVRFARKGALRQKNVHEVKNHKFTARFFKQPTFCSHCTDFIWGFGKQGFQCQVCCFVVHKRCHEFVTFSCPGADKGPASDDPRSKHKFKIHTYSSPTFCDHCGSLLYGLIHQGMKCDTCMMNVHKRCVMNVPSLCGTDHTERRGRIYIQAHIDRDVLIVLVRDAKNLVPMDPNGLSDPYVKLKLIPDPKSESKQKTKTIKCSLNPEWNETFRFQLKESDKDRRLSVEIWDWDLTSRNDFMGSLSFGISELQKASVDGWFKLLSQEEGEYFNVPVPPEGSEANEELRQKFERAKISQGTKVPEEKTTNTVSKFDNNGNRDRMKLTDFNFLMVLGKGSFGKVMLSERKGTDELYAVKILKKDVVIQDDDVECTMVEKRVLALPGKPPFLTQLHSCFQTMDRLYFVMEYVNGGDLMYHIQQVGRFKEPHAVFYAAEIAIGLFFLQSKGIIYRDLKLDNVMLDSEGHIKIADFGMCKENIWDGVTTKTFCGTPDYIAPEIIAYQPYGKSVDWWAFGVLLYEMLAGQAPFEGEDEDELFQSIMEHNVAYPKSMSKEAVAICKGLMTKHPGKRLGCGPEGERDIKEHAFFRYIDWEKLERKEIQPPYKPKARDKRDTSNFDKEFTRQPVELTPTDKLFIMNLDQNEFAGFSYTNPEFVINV

[10] = molecular target: T3, Inhibitor of nuclear factor kappa-B kinase subunit beta (Homo sapiens) (UniProt O14920); test: IKKβ Invitrogen kinase activity assay; conditions: Compound concentration 1.0 uM
T3 sequence (whole entry): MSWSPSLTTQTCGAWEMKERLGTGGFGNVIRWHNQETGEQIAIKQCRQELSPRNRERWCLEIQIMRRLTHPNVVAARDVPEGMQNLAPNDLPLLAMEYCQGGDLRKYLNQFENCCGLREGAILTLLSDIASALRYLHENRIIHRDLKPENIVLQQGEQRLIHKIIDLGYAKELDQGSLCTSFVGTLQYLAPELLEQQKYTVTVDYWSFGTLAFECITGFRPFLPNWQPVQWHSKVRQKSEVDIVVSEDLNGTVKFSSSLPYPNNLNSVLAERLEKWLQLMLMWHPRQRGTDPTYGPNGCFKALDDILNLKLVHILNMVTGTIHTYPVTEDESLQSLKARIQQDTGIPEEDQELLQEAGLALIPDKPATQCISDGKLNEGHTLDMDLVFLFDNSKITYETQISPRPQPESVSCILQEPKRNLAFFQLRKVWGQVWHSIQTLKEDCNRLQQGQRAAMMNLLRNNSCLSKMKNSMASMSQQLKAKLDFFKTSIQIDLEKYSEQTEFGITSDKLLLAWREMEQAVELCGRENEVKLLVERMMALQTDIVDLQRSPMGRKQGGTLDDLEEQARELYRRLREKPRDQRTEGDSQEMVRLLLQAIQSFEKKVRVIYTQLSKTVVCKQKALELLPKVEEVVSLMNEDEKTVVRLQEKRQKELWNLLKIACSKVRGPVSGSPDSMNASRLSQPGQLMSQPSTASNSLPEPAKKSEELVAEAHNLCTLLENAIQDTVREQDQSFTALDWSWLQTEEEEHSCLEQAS

[11] = molecular target: Mu-type opioid receptor (Homo sapiens) (UniProt P35372); conditions: Compound concentration 10.0 uM
[12] = molecular target: Sigma intracellular receptor 2 (Homo sapiens, UniProt Q5BJF2); test: GPCRScan assay: inhibition of Sigma 2; design: radioligand conc. used [nm] 5.0, parental cells HEKT
[13] = molecular target: GABA-A receptor; anion channel (Rattus norvegicus) (UniProt O09028+P15431+P18506+P18508+P19969+P20236+P23574+P23576+P28471+P28473+P30191+P62813+P63079+P63138+Q91ZM7+Q9ES14); conditions: Compound concentration 10.0 uM
D(1A) dopamine receptor = D(1A) dopamine receptor (Homo sapiens, UniProt P21728); conditions: Compound concentration 10.0 uM

Sequence of Tyrosine-protein kinase ABL1 (P00519 whole entry): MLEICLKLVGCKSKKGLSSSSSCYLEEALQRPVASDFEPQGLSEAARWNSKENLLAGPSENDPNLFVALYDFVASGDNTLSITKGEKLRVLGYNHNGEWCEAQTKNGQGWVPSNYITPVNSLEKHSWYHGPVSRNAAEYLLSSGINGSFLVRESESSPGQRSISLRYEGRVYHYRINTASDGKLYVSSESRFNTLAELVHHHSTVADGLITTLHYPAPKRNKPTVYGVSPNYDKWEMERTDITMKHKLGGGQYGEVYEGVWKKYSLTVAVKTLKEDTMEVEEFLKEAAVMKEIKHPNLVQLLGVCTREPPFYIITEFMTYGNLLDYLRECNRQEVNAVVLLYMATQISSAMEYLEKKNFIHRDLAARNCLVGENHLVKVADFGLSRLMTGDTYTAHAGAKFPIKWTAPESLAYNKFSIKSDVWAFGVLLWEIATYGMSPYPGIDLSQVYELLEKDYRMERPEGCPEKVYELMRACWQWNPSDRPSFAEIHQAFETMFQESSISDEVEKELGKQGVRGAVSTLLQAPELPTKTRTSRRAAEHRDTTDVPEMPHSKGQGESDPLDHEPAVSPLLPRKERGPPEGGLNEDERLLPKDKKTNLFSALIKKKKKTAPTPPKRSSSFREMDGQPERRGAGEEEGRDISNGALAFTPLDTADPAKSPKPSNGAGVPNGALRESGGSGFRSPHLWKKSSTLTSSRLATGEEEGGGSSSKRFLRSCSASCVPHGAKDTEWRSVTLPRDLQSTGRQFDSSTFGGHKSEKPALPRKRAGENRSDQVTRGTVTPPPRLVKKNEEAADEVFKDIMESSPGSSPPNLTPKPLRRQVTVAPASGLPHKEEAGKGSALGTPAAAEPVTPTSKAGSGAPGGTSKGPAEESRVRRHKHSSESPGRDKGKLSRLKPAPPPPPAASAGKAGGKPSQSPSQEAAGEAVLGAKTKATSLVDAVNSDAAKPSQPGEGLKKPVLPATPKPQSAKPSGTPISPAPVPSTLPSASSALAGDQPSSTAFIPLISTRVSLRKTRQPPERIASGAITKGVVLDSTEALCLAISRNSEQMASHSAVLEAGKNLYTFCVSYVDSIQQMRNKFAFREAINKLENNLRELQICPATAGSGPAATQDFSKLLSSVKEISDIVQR
Sequence of 5-hydroxytryptamine receptor 1A (Homo sapiens) (P08908 whole entry): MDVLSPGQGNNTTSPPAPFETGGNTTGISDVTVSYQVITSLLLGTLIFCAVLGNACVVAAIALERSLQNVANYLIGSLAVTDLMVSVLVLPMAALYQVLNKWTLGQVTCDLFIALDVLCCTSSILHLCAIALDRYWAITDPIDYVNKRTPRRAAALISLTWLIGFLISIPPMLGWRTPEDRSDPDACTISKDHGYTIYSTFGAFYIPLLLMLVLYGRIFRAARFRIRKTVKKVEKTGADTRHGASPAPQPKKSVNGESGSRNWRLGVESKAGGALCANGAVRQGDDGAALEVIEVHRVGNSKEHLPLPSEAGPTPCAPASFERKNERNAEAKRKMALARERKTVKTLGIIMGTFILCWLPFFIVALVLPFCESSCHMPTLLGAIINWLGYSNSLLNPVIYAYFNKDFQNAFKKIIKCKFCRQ

SMILES	IC50 [1]	inhibition ([1]; Compound concentration 1.0 uM)	inhibition [2]	inhibition [3]	inhibition [4]	inhibition [5]	inhibition [6]	inhibition [7]	Ki (Adenosine receptor A2a)	inhibition [8]	inhibition [9]	inhibition [10]	inhibition [11]	Ki [12]	inhibition [13]	inhibition (D(1A) dopamine receptor)
CNC(=O)c1ccc(Nc2ncc(C(F)(F)F)c(NCc3nccnc3N(C)S(C)(=O)=O)n2)cc1 [DEFACTINIB]	1.64 µM	34%	-9.76%	20%	8%	23%	11.3%	0%	0.37 µM (not active)	69%	15%	4%	–	–	–	–
CN(c1ccnc(CNc2nc(Nc3ccc4c(c3)CC(=O)N4)ncc2C(F)(F)F)n1)S(C)(=O)=O [PF-00911705]	–	–	–	–	–	–	–	–	–	–	–	–	0.77%	2.12 µM	10.3%	0.76%
